Experimental findings from PubChem BioAssay AID248 (DTP/NCI, 2004) are described below.

The test system of the experiment is L1210 leukemia ip in BDF1 mice, survival T/C. Kind of experiment: NCI In Vivo Anticancer Drug Screen. Data for tumor model L1210 Leukemia (intraperitoneal) in B6D2F1 (BDF1) mice. The settings on record: endpoint: mean survival time, higher = longer survival. In short, it runs like this:
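Mice bearing the transplanted tumor received compound or vehicle. Survival of the treated group was divided by that of the vehicle-treated control group to give the ratio.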

The mark [1] stands for this setting: dose: 100.0 mg/kg/injection, schedule: Q01DX009 (ip), vehicle: Klucel (hydroxypropylcellulose) (HPC).
The mark [2] stands for this setting: dose: 200.0 mg/kg/injection, schedule: Q01DX009 (ip), vehicle: Klucel (hydroxypropylcellulose) (HPC).
[3] abbreviates: dose: 100.0 mg/kg/injection, schedule: Q04DX003 (ip), vehicle: saline.
[4] abbreviates: dose: 200.0 mg/kg/injection, schedule: Q04DX003 (ip), vehicle: saline.
Setting [5] is: dose: 400.0 mg/kg/injection, schedule: Q04DX003 (ip), vehicle: saline.
Setting [6] is: dose: 25.0 mg/kg/injection, schedule: Q01DX009 (ip), vehicle: saline with Tween-80.
The mark [7] stands for this setting: dose: 50.0 mg/kg/injection, schedule: Q01DX009 (ip), vehicle: saline with Tween-80.
Where [8] appears, read: dose: 100.0 mg/kg/injection, schedule: Q01DX001 (ip), vehicle: saline.
Where [9] appears, read: dose: 200.0 mg/kg/injection, schedule: Q01DX001 (ip), vehicle: saline.
[10] abbreviates: dose: 400.0 mg/kg/injection, schedule: Q01DX001 (ip), vehicle: saline.
The mark [11] stands for this setting: dose: 100.0 mg/kg/injection, schedule: Q04DX003 (ip), vehicle: Klucel (hydroxypropylcellulose) (HPC).
The mark [12] stands for this setting: dose: 200.0 mg/kg/injection, schedule: Q04DX003 (ip), vehicle: Klucel (hydroxypropylcellulose) (HPC).
Where [13] appears, read: dose: 400.0 mg/kg/injection, schedule: Q04DX003 (ip), vehicle: Klucel (hydroxypropylcellulose) (HPC).
[14] abbreviates: dose: 100.0 mg/kg/injection, schedule: Q01DX009 (ip), vehicle: saline with Tween-80.
Setting [15] is: dose: 100.0 mg/kg/injection, schedule: Q04DX003 (ip), vehicle: saline with Tween-80.

SMILES strings stand for the structures. Values joined by “and” are separate entries in the source; they are usually repeats but may differ in a detail not shown here. Equal entries are not always repeated. Toxic doses and inconclusive results are not listed.

Take `COc1ccccc1NC(=O)NCCN1CCOCC1`: the T/C by setting is: under setting [1], 103 % of control; under setting [2], 95 % of control.

For `CN=C(N)c1ccc(N=C(N)c2ccc(N=C(N)c3ccc(NC(=O)Nc4cccc(NC(=O)Nc5ccc(C(N)=Nc6ccc(C(N)=Nc7ccc(C(N)=NC)cc7)cc6)cc5)c4)cc3)cc2)cc1`, the T/C reads like this: (dose: 0.25 mg/kg/injection, schedule: Q01DX015 (ip), vehicle: water) 109 % of control; (dose: 0.5 mg/kg/injection, schedule: Q01DX015 (ip), vehicle: water) 113 % of control; (dose: 1.0 mg/kg/injection, schedule: Q01DX015 (ip), vehicle: water) 121 % of control; (dose: 2.0 mg/kg/injection, schedule: Q01DX015 (ip), vehicle: water) 124 % of control; (dose: 37.5 mg/kg/injection, schedule: Q01DX001 (ip), vehicle: water) 177 % of control and 178 % of control and 187 % of control; (dose: 75.0 mg/kg/injection, schedule: Q01DX001 (ip), vehicle: water) 265 % of control and 278 % of control and 310 % of control.

As for `CCOC(=O)C1=C(C)NC(C)=C(C(=O)OCC)C1c1ccccc1Cl`, the T/C is 97 % of control under setting [3], 117 % of control under setting [4] and 87 % of control under setting [5].

For the compound `CCOC(=O)N1C(=O)C2C3CCC(O3)C2C1=O` (configuration not stated), the T/C under setting [6] is 107 % of control and the T/C under setting [7] is 110 % of control.

For `CCOc1ccc(NC(=O)c2c(Br)c(Br)c(Br)c(Br)c2C(=O)O)cc1`, the T/C runs as follows: under setting [1], 102 % of control; under setting [2], 87 % of control.

For `O=C(O)C1CCCN1O` (configuration not stated), the T/C reads like this: under setting [8], 104 % of control; under setting [9], 98 % of control; under setting [10], 98 % of control.

For the compound `CCc1c(C)[nH]c2c1C(=O)CCC2`, the T/C reads like this: (dose: 10.0 mg/kg/injection, schedule: Q01DX001 (ip), vehicle: saline) 98 % of control; (dose: 20.0 mg/kg/injection, schedule: Q01DX001 (ip), vehicle: saline) 100 % of control; (dose: 40.0 mg/kg/injection, schedule: Q01DX001 (ip), vehicle: saline) 105 % of control.

For `COc1ccc(C(=O)/C=C\c2ccc(OC)cc2O)cc1`, the T/C runs as follows: (dose: 50.0 mg/kg/injection, schedule: Q01DX001 (ip), vehicle: saline) 100 % of control; under setting [8], 103 % of control; under setting [9], 97 % of control; under setting [10], 103 % of control.

For the compound `CSc1ncc(Br)c(Cl)n1`, the T/C (dose: 5.0 mg/kg/injection, schedule: Q01DX001 (ip), vehicle: carboxymethylcellulose (CMC)) is 95 % of control; the T/C (dose: 10.0 mg/kg/injection, schedule: Q01DX001 (ip), vehicle: carboxymethylcellulose (CMC)) is 98 % of control; the T/C (dose: 20.0 mg/kg/injection, schedule: Q01DX001 (ip), vehicle: carboxymethylcellulose (CMC)) was 95 % of control; the T/C (dose: 40.0 mg/kg/injection, schedule: Q01DX001 (ip), vehicle: carboxymethylcellulose (CMC)) is 93 % of control; the T/C (dose: 80.0 mg/kg/injection, schedule: Q01DX001 (ip), vehicle: carboxymethylcellulose (CMC)) was 93 % of control.

For `C/C(CCO)=N/N=C(N)N`, the T/C (dose: 15.0 mg/kg/injection, schedule: Q01DX Z (ip), vehicle: methylcellulose (MC)) is 97 % of control; the T/C (dose: 30.0 mg/kg/injection, schedule: Q01DX Z (ip), vehicle: methylcellulose (MC)) was 109 % of control; the T/C (dose: 30.0 mg/kg/injection, schedule: Q01DX Z (oral), vehicle: methylcellulose (MC)) was 97 % of control; the T/C (dose: 60.0 mg/kg/injection, schedule: Q01DX Z (oral), vehicle: methylcellulose (MC)) is 100 % of control.

With `CC(CC=C(CCC(C)CC(C)(C)C)CCC(C)CC(C)(C)C)CC(C)(C)C` (configuration not stated), the T/C was 99 % of control (dose: 75.0 mg/kg/injection, schedule: Q01DX001 (ip), vehicle: saline with Tween-80); 100 % of control (dose: 150.0 mg/kg/injection, schedule: Q01DX001 (ip), vehicle: saline with Tween-80); 97 % of control (dose: 300.0 mg/kg/injection, schedule: Q01DX001 (ip), vehicle: saline with Tween-80).

Take `Cn1c(=O)cc(CNc2ccc(-c3ccccc3)cc2)c2ccccc21`: the T/C was 92 % of control under setting [8], 90 % of control under setting [9] and 88 % of control under setting [10].

For the compound `Cc1cc(CC#N)c(C)c([N+](=O)[O-])c1`, the T/C reads like this: (dose: 25.0 mg/kg/injection, schedule: Q04DX003 (ip), vehicle: Klucel (hydroxypropylcellulose) (HPC)) 96 % of control; (dose: 50.0 mg/kg/injection, schedule: Q04DX003 (ip), vehicle: Klucel (hydroxypropylcellulose) (HPC)) 89 % of control.

Consider `Cc1ccc(S(=O)(=O)ON=C2c3ccccc3-c3ccccc32)cc1`, for which the T/C was 96 % of control (dose: 25.0 mg/kg/injection, schedule: Q01DX009 (ip), vehicle: Klucel (hydroxypropylcellulose) (HPC)); 96 % of control (dose: 50.0 mg/kg/injection, schedule: Q01DX009 (ip), vehicle: Klucel (hydroxypropylcellulose) (HPC)); 101 % of control (dose: 100.0 mg/kg/injection, schedule: Q01DX001 (ip), vehicle: Klucel (hydroxypropylcellulose) (HPC)); 100 % of control under setting [1]; 98 % of control under setting [11]; 99 % of control (dose: 200.0 mg/kg/injection, schedule: Q01DX001 (ip), vehicle: Klucel (hydroxypropylcellulose) (HPC)). Further, the T/C was 88 % of control and 91 % of control under setting [2]; 93 % of control under setting [12]; 105 % of control (dose: 400.0 mg/kg/injection, schedule: Q01DX001 (ip), vehicle: Klucel (hydroxypropylcellulose) (HPC)); 103 % of control under setting [13].

For the compound `CC(=O)N/N=C(/C)C(O)(c1ccccc1)c1ccccc1`, the T/C was 95 % of control under setting [14]; 100 % of control under setting [15]; 92 % of control (dose: 200.0 mg/kg/injection, schedule: Q01DX009 (ip), vehicle: saline with Tween-80); 101 % of control (dose: 200.0 mg/kg/injection, schedule: Q04DX003 (ip), vehicle: saline with Tween-80); 97 % of control (dose: 400.0 mg/kg/injection, schedule: Q01DX009 (ip), vehicle: saline with Tween-80); 101 % of control (dose: 400.0 mg/kg/injection, schedule: Q04DX003 (ip), vehicle: saline with Tween-80).

In the case of `CCCCN(CCCC)CC(C)O` (configuration not stated), the T/C runs as follows: under setting [6], 101 % of control; (dose: 25.0 mg/kg/injection, schedule: Q04DX003 (ip), vehicle: saline with Tween-80) 104 % of control; under setting [7], 95 % of control; (dose: 50.0 mg/kg/injection, schedule: Q04DX003 (ip), vehicle: saline with Tween-80) 96 % of control; under setting [14], 104 % of control; under setting [15], 98 % of control and 101 % of control.

With `C(=N/OC(c1ccccc1)(c1ccccc1)c1ccccc1)/c1ccccc1`, the T/C (dose: 50.0 mg/kg/injection, schedule: Q01DX009 (ip), vehicle: saline) was 98 % of control; the T/C (dose: 75.0 mg/kg/injection, schedule: Q04DX003 (ip), vehicle: saline) was 92 % of control; the T/C (dose: 100.0 mg/kg/injection, schedule: Q01DX009 (ip), vehicle: saline) was 104 % of control; the T/C under setting [11] was 101 % of control; the T/C under setting [3] is 95 % of control; the T/C (dose: 150.0 mg/kg/injection, schedule: Q04DX003 (ip), vehicle: saline) was 94 % of control. In addition, the T/C runs as follows: (dose: 200.0 mg/kg/injection, schedule: Q01DX009 (ip), vehicle: saline) 98 % of control; under setting [12], 103 % of control; under setting [4], 95 % of control; (dose: 300.0 mg/kg/injection, schedule: Q04DX003 (ip), vehicle: saline) 89 % of control; under setting [13], 101 % of control; under setting [5], 95 % of control.

In the case of `O=C1OC(=O)C2C3OC(C(Br)C3Br)C12` (configuration not stated), the T/C (dose: 16.0 mg/kg/injection, schedule: Q04DX003 (ip), vehicle: saline) was 100 % of control; the T/C (dose: 37.5 mg/kg/injection, schedule: Q04DX003 (ip), vehicle: saline) is 95 % of control; the T/C (dose: 50.0 mg/kg/injection, schedule: Q04DX003 (ip), vehicle: saline) is 101 % of control; the T/C under setting [3] is 100 % of control and 90 % of control.

As for `CCCCN1CCCC(O)C1` (configuration not stated), the T/C runs as follows: under setting [3], 97 % of control; under setting [4], 104 % of control.
